In patent US10023557B2 (LifeSci Pharmaceuticals, Inc., priority 2015, dated 2018):

Molecular target: human plasma kallikrein (Homo sapiens (Human), UniProt P03952)
Experiment: In vitro enzyme inhibition of human plasma kallikrein (PFR-AMC cleavage)
Assay type: biochemical
Details: Pro-Phe-Arg-AMC substrate, 37° C., read-out: hPK IC50
Procedure: The ability of the compounds disclosed herein to inhibit human plasma kallikrein activity was quantified according to the procedures below.
A 10 mM solution of the test compound was made in DMSO. […] A control tube containing only DMSO is included. 16 μL of each compound test solution was combined with 384 μL of assay buffer (50 mM Tris-HCl pH 7.5, 150 mM NaCl, 0.01% Triton X-100) to yield a “4× test compound buffer stock”.
These solutions are hereby referred to as 4× hPK and 2×PFR-AMC, respectively.
50 μL was removed from this mixture and placed into duplicate wells on a Microfluor 1Black U-bottom microtiter plate (Thermo Scientific). This plate was incubated for 5 minutes at 37° C. To each well, 50 μL of pre-warmed 2×PFR-AMC was added to start the enzymatic reaction. Cleavage of PFR-AMC was monitored in a Biotek Synergy H4 reader set at 37° C. Readings are taken every 43 seconds for 1 hour. […] The IC50 is calculated using the Gen5 (Biotek Instruments).
The ability of the compounds in Table 3 to inhibit human plasma kallikrein activity was determined.

human plasma kallikrein, sequence (P03952 391-638): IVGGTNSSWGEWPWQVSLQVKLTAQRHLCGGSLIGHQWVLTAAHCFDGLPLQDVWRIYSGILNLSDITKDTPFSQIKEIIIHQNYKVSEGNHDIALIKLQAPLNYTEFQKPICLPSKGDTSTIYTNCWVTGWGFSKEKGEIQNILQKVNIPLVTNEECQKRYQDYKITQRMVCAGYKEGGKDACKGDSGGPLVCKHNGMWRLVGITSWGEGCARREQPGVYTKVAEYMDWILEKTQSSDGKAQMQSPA
human plasma kallikrein, sequence (P03952 20-390 partner): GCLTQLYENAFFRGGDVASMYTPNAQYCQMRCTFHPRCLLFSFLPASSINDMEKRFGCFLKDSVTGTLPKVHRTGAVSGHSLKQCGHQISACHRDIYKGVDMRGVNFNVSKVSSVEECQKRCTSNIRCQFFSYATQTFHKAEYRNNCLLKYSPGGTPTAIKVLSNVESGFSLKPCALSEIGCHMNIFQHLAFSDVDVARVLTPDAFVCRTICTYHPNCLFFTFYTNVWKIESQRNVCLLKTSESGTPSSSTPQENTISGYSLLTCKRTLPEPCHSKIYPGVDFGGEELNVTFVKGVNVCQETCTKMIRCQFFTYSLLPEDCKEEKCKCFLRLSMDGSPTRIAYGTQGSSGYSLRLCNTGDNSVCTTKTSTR

SMILES | IC50 [nM]
O=C(NCc1cc2cc[nH]c2cc1F)c1ccnc(Cc2ccc3ncc(Cl)cc3c2)c1 [Example 259, 2-((3-chloroquinolin-6-yl)methyl)-N-((6-fluoro-1H-indol-5-yl)methyl)isonicotinamide] | 100 to 1000
O=C(NCc1cc2c(Cl)c[nH]c2cc1F)c1ccnc(Cc2ccc3ncc(N4CCCC4)cc3c2)c1 [Example 307, N-((3-chloro-6-fluoro-1H-indol-5-yl)methyl)-2-((3-(pyrrolidin-1-yl)quinolin-6-yl)methyl)isonicotinamide] | 100 to 1000
Cc1cc(N)nc(C)c1CNC(=O)c1ccnc(Cn2ncc3cc(Cl)cnc32)c1 [Example 202, N-((6-amino-2,4-dimethylpyridin-3-yl)methyl)-2-((5-chloro-1H-pyrazolo[3,4-b]pyridin-1-yl)methyl)isonicotinamide] | 100 to 1000
O=C(NCc1ccc2[nH]cc(Cl)c2c1F)c1ccnc(Cc2ccc3ncc(N4CCCCC4)cc3c2)c1 [Example 305, N-((3-chloro-4-fluoro-1H-indol-5-yl)methyl)-2-((3-(piperidin-1-yl)quinolin-6-yl)methyl)isonicotinamide] | > 10000
Cc1nc(N)ccc1CNC(=O)c1ccnc(Cc2cc(-c3nnn[nH]3)c3ncc(Cl)cc3c2)c1 [Example 273, N-((6-amino-2-methylpyridin-3-yl)methyl)-2-((3-chloro-8-(1H-tetrazol-5-yl)quinolin-6-yl)methyl)isonicotinamide] | 100 to 1000
O=C(NCc1cc2c(Cl)c[nH]c2cc1F)c1ccnc(Cc2ccc3ncc(N4CCOCC4)cc3c2)c1 [Example 292, N-((3-chloro-6-fluoro-1H-indol-5-yl)methyl)-2-((3-morpholinoquinolin-6-yl)methyl)isonicotinamide] | 1000 to 10000
O=C(NCc1c[nH]c2ccc(Cl)cc12)c1ccnc(Cc2ccc3ncc(Cl)cc3c2)c1 [Example 268, N-((5-chloro-1H-indol-3-yl)methyl)-2-((3-chloroquinolin-6-yl)methyl)isonicotinamide] | 100 to 1000
Cc1cc(N)nc(C)c1CNC(=O)c1cc(Cc2ccc3ncc(Cl)cc3c2)nc(-c2n[nH]c(=O)[nH]2)c1 [Example 196, N-((6-amino-2,4-dimethylpyridin-3-yl)methyl)-2-((3-chloroquinolin-6-yl)methyl)-6-(5-oxo-4,5-dihydro-1H-1,2,4-triazol-3-yl)isonicotinamide] | < 100
Cc1cc(N)nc(C)c1CNC(=O)c1ccnc(Cn2cc3cc(Cl)cnc3n2)c1 [Example 203, N-((6-amino-2,4-dimethylpyridin-3-yl)methyl)-2-((5-chloro-2H-pyrazolo[3,4-b]pyridin-2-yl)methyl)isonicotinamide] | 100 to 1000
Cc1nc2c(c(C)c1CNC(=O)c1ccnc(Cc3ccc4ncc(Cl)cc4c3)c1)CCN2 [Example 175, 2-((3-chloroquinolin-6-yl)methyl)-N-((4,6-dimethyl-2,3-dihydro-1H-pyrrolo[2,3-b]pyridin-5-yl)methyl)isonicotinamide] | < 100
Cc1nc2c(cc1CNC(=O)c1ccnc(Cc3ccc4ncc(C(F)(F)F)cc4c3)c1)CNC2 [Example 164, N-((2-methyl-6,7-dihydro-5H-pyrrolo[3,4-b]pyridin-3-yl)methyl)-2-((3-(trifluoromethyl)quinolin-6-yl)methyl)isonicotinamide] | > 10000
Cc1cnc2c(C(C)(C)O)cc(Cc3cc(C(=O)NCc4n[nH]c5ccc(Cl)cc45)ccn3)cc2c1 [Example 317, N-((5-chloro-1H-indazol-3-yl)methyl)-2-((8-(2-hydroxypropan-2-yl)-3-methylquinolin-6-yl)methyl)isonicotinamide] | < 100
O=C(NCc1n[nH]c2ccc(Cl)cc12)c1ccnc(Cc2ccc3ncc(N4CCCC4)cc3c2)c1 [Example 309, N-((5-chloro-1H-indazol-3-yl)methyl)-2-((3-(pyrrolidin-1-yl)quinolin-6-yl)methyl)isonicotinamide] | 100 to 1000
O=C(NCc1cc2c(Cl)c[nH]c2cc1F)c1ccnc(Cc2ccc3ncc(N4CCC4)cc3c2)c1 [Example 320, 2-((3-(azetidin-1-yl)quinolin-6-yl)methyl)-N-((3-chloro-6-fluoro-1H-indol-5-yl)methyl)isonicotinamide] | < 100
Cc1cc(N)nc(C)c1CNC(=O)c1cc(C#N)nc(Cc2ccc3ncc(Cl)cc3c2)c1 [Example 207, N-((6-amino-2,4-dimethylpyridin-3-yl)methyl)-2-((3-chloroquinolin-6-yl)methyl)-6-cyanoisonicotinamide] | < 100
Nc1nccc2cc(CNC(=O)c3ccnc(Cc4ccc5ncc(N6CCCCC6)cc5c4)c3)ccc12 [Example 303, N-((1-aminoisoquinolin-6-yl)methyl)-2-((3-(piperidin-1-yl)quinolin-6-yl)methyl)isonicotinamide] | 1000 to 10000
Cc1nc2c(c(C)c1CNC(=O)c1ccnc(Cc3ccc4ncc(Cl)cc4c3)c1)CCCN2 [Example 195, 2-((3-chloroquinolin-6-yl)methyl)-N-((2,4-dimethyl-5,6,7,8-tetrahydro-1,8-naphthyridin-3-yl)methyl)isonicotinamide] | < 100

Other lines, results leading:

IC50 [nM] | SMILES
< 100 | CCc1cnc2ccc(Cc3cc(C(=O)NCc4cnc5[nH]cc(Cl)c5c4)ccn3)cc2c1 [Example 281, N-((3-chloro-1H-pyrrolo[2,3-b]pyridin-5-yl)methyl)-2-((3-ethylquinolin-6-yl)methyl)isonicotinamide]
100 to 1000 | O=C(NCc1cnc2[nH]nc(C(F)(F)F)c2c1)c1ccnc(Cc2ccc3ncc(Cl)cc3c2)c1 [Example 271, 2-((3-chloroquinolin-6-yl)methyl)-N-((3-(trifluoromethyl)-1H-pyrazolo[3,4-b]pyridin-5-yl)methyl)isonicotinamide]
> 10000 | Cc1ccn2c(C(F)(F)F)nc(CNC(=O)c3ccnc(Cc4ccc5ncc(Cl)cc5c4)c3)c2c1 [Example 160, 2-((3-chloroquinolin-6-yl)methyl)-N-((7-methyl-3-(trifluoromethyl)imidazo[1,5-a]pyridin-1-yl)methyl)isonicotinamide]
< 100 | CCc1cnc2ccc(Cc3cc(C(=O)NCc4ccc5[nH]cc(Cl)c5c4F)ccn3)cc2c1 [Example 282, N-((3-chloro-4-fluoro-1H-indol-5-yl)methyl)-2-((3-ethylquinolin-6-yl)methyl)isonicotinamide]
100 to 1000 | Cc1ccn2nnc(CNC(=O)c3ccnc(Cc4ccc5ncc(Cl)cc5c4)c3)c2c1 [Example 155, 2-((3-chloroquinolin-6-yl)methyl)-N-((5-methyl-[1,2,3]triazolo[1,5-a]pyridin-3-yl)methyl)isonicotinamide]
> 10000 | NCc1ccc(CNC(=O)c2ccnc(Cc3ccc4ncc(Cl)cc4c3)c2)nc1 [Example 170, N-((5-(aminomethyl)pyridin-2-yl)methyl)-2-((3-chloroquinolin-6-yl)methyl)isonicotinamide]
100 to 1000 | Cc1nc(N)ccc1CNC(=O)c1ccnc(Cc2ccc3ncc(CO)cc3c2)c1 [Example 258, N-((6-amino-2-methylpyridin-3-yl)methyl)-2-((3-(hydroxymethyl)quinolin-6-yl)methyl)isonicotinamide]
100 to 1000 | Cc1[nH]c2ccc(Cl)cc2c1CNC(=O)c1ccnc(Cc2ccc3ncc(Cl)cc3c2)c1 [Example 270, N-((5-chloro-2-methyl-1H-indol-3-yl)methyl)-2-((3-chloroquinolin-6-yl)methyl)isonicotinamide]
